Reference: US20110294789A1, “COMPOUNDS FOR RHO KINASE INHIBITION AND FOR IMPROVING LEARNING AND MEMORY” (AMNESTIX, INC., priority 2008, published 2011)
“Also recorded” adds a separate entry of the source.

Key:
[1] = target: T1, recombinant active rho kinase 2 (ROCK) (Homo sapiens, UniProt O75116); experiment: ROCK inhibition assay (ROCK assay kit, anti-phospho-MYPT1 detection); format: biochemical; conditions: test compounds 0.1 to 100 μM; compared to Fasudil in corresponding concentration; FIG. 12
T1 construct: purchased Upstate, Lake Placid, N.Y., USA (enzyme); Cell Biolabs Inc., San Diego (assay kit with substrate)
Protocol: The inhibitory effect of test compounds on rho kinase 2 (ROCK) was analyzed using recombinant active rho kinase 2 (Upstate, Lake Placid, N.Y., USA) and the a ROCK assay kit (Cell Biolabs Inc., San Diego, Calif., USA) following the manufacture's instruction. Recombinant rho kinase 2 was dissolved in kinase reaction buffer including the kinase substrate in the presence of the test compound. Test compounds were added in a final concentration of 0.1 to 100 μM. Assays without test compound served as control. […] Assays were incubated at 30° C. for 30-60 min and subsequently stopped by adding 50% of the reaction-volume of 0.5 M EDTA, pH 8.0. After washing steps phosphorylated kinase substrate was quantified using a specific anti-phospho-MYPT1 (Thr696) antibody and a HRP-conjugated secondary antibody.

over 400 kinases = experiment: KinomeScan competition binding assay, kinase specificity; conditions: 10 μM; competition of more than 50% regarded as inhibitory; FIG. 13A
Source text: (§1) Based on a competition binding assay that quantitatively measures the ability of a test compound to compete with an immobilized, active-site directed ligand it is possible to scan the competitive effect of the test compound for a broad variety of kinases in parallel (KinomeScan, Ambit, San Diego, Calif., USA; Fabian et al., Nat. Biotechnol. 2005, 23, 329). Based on this analysis it is possible to assess the inhibitory specificity of a test compound. […] As result of the assay one obtains the percentage of competition of the active-site directed ligand for each of the over 400 kinases of the test due to the incubation with the test compounds. Competitions of more than 50% were regarded as significant indicating for inhibition of the particular kinase.

IRAK1 = target: T2, IRAK1 (Homo sapiens, UniProt P51617); experiment: KinomeScan competition binding assay; conditions: 10 μM; competition of more than 50% regarded as inhibitory
T2 construct: purchased Ambit, San Diego, Calif., USA (KinomeScan)
Source text: as §1

PIM kinases = experiment: KinomeScan competition binding assay; conditions: 10 μM; competition of more than 50% regarded as inhibitory
Source text: as §1

[2] = system: Hippocampal primary neurons; experiment: Neurite outgrowth analysis; format: cell-based, rats; conditions: 1.5 μM or 15 μM, 2 days in culture; versus negative control and Fasudil; FIG. 15
Protocol: The effect of test compounds on neurite outgrowth can be assessed in vitro. Hippocampal primary neurons prepared from embryonic (E18) rats were cultured in Neurobasal medium (Invitrogen) enriched with B27, bFGF, Penicillin/Streptomycin, L-Glutamin. For the neurite outgrowth assay the medium is mixed with conditioned medium in a 1:1 ratio. The neurites were immunocytochemically stained using an antibody against the axonal marker neurofilament-light. Photographs were acquired at 40-fold magnification (Olympus IX81) and assembled to allow analysis of whole individual neurons. The test compounds 1-(8-methyl-5 isoquinoline-sulfonyl)homopiperazine and 1-(1-chloro-8-methoxy-5 isoquinoline-sulfonyl)homopiperazine were added to the medium in the final concentration of 1.5 μM or 15 μM 1 h after plating in comparison to adding water which served as negative control. […] After 2 days in culture the cells were fixed. Photographs and neurite tracing were performed in a blinded manner.

hippocampal slices = experiment: In vitro LTP analysis (theta burst stimulation, fEPSP slope); format: cell-based, Wistar rats
Source text: Long-term potentiation (LTP) is an in vitro model for the assessment of memory function. Therefore, it allows analysis of test compounds, e.g. the compounds of the invention, e.g. 1-(8-methyl-5 isoquinoline-sulfonyl)homopiperazine and 1-(1-chloro-8-methoxy-5 isoquinoline-sulfonyl)homopiperazine, for memory enhancing potential. Experiments were done on hippocampal slices from 3-4 week-old Wistar rats. The rats were sacrificed by decapitation without prior anesthesia. Brains were quickly removed and soaked in ice cold artificial cerebrospinal fluid (ACSF) containing: NaCl (124 mM), KCl (5 mM), Na2HPO4 (1.2 mM), NaHCO3 (26 mM), CaCl2 (2 mM), MgSO4 (2 mM), and glucose (10 mM), that was continuously bubbled with carbogen (95% O2, 5% CO2). Slices were then cut at 400 μm thickness using a vibratome and incubated in ACSF at room temperature for at least 1 h before starting recordings. All compounds used were diluted in ACSF at the concentrations needed and were prepared fresh on the day of recording from 100 mM stock solutions. To assure proper solubility of the compounds, stock solutions were made with DMSO. For recording, slices were transferred to a 4-channel slice chamber (Synchroslice, Lohmann Research Equipment) that allows simultaneous recording of 4 brain slices. Each slice was placed in a separate submerged type slice chamber were it was continuously superfused with temperature controlled (34° C.) ACSF or ACSF at a rate of 2 ml/min. Under visual control by a camera system, a bipolar stimulation electrode (Rhoades) was placed in the Schaffer collaterals and a single biphasic electrical stimulus of a duration of 200 μs and an amplitude of 200 μA was applied at 0.05 Hz. A platinum/tungsten electrode was then lowered into the CA1 dendritic layer under visual control until stable amplitudes of the recorded fEPSP were achieved. After a recording period of at least 10 min, the input-output relationship between stimulus amplitude and fEPSP amplitude was achieved separately for each slice. […] To induce LTP, 10 theta bursts were applied. Each burst consisted of 4 biphasic stimuli of […] and 600 μA amplitude at a 10 ms interstimulus interval. The interburst interval was 200 ms. Each recording cycle started with a 15 min period in which electrical stimuli were applied at 0.05 Hz to assure stability of the fEPSP amplitude. Then, test the compound was washed in for a period of 30 min during which stimulation was continued at 0.05 Hz and fEPSPs were continuously recorded. LTP induction by theta burst stimulation was started 30 min after wash in. Recording was continued after LTP induction for at least 60 min, 30 min after LTP induction, compounds were washed out. All slices recorded simultaneously were treated with the same time schedule. From the recorded data, the amplitudes of the evoked fEPSP were automatically calculated by the recording software (Synchroslice data acquisition and analysis, LRE) as the negative peak of the postsynaptic signal with respect to baseline and plotted online. All recorded signals were digitally stored for later offline analysis, in particular for fEPSP negative slope calculation. From the stored single sweeps, the slope was calculated between 30% and 70% of the maximum fEPSP amplitude. To allow comparison of data obtained from different slices, fEPSP slopes were normalized to the control value (100%).
Effects induced by applied substances were tested for statistical significance using either the Student's t-test or the Mann-Whitney Rank Sum Test, significance was assumed if p<0.05. Measurements for each experimental condition were repeated six times. Results are given as means from n=5 slices and standard deviation (SD). […] This could be due to the activation of undesired kinases and/or pathways at this concentration. […]

ROCK2 = target: T3, ROCK2 (Homo sapiens, UniProt O75116); experiment: KinomeScan competition binding assay; conditions: 10 μM; compared to Fasudil
T3 construct: purchased Ambit, San Diego, Calif., USA (KinomeScan)
Source text: as §1

[3] = system: undifferentiated PC12 cells; conditions: Zhang et al. 2006; cited from earlier work
[4] = Huentelman et al. 2009; WO 2008/019395; cited from earlier work

T1 sequence (O75116 whole entry): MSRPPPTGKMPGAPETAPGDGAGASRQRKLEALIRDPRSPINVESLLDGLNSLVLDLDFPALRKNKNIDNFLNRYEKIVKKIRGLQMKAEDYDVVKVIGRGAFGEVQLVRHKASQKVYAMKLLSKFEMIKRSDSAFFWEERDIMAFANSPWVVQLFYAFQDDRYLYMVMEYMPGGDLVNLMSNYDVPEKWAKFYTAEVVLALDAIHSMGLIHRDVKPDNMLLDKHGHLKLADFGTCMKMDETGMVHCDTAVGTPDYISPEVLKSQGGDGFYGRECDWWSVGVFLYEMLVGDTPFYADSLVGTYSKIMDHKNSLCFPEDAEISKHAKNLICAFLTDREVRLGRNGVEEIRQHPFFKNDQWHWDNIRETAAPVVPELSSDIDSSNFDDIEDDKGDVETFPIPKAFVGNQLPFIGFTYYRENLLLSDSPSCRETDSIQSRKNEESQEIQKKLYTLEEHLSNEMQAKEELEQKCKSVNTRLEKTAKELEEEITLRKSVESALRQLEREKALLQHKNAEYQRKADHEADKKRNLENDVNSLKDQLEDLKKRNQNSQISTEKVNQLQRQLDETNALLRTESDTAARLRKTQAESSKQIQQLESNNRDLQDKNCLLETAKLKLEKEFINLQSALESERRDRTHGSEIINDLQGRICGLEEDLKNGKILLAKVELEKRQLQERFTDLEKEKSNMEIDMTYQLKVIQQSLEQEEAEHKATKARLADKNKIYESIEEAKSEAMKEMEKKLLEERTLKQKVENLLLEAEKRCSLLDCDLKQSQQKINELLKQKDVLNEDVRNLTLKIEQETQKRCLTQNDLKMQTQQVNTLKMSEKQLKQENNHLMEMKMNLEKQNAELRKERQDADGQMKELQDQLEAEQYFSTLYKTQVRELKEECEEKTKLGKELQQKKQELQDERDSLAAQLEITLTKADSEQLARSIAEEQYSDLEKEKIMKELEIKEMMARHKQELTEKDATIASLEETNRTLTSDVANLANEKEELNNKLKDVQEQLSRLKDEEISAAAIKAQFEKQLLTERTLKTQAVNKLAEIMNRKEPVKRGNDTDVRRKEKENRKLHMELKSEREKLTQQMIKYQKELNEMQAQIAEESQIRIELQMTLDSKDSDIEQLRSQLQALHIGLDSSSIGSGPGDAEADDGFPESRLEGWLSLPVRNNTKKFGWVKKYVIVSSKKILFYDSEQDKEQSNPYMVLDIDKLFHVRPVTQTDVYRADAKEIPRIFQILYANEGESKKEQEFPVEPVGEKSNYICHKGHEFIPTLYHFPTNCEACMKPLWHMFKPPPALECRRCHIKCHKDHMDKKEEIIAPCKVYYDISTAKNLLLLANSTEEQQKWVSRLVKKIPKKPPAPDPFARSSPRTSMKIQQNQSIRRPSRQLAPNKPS
T3 sequence (O75116 whole entry): as above
T2 sequence (P51617 whole entry): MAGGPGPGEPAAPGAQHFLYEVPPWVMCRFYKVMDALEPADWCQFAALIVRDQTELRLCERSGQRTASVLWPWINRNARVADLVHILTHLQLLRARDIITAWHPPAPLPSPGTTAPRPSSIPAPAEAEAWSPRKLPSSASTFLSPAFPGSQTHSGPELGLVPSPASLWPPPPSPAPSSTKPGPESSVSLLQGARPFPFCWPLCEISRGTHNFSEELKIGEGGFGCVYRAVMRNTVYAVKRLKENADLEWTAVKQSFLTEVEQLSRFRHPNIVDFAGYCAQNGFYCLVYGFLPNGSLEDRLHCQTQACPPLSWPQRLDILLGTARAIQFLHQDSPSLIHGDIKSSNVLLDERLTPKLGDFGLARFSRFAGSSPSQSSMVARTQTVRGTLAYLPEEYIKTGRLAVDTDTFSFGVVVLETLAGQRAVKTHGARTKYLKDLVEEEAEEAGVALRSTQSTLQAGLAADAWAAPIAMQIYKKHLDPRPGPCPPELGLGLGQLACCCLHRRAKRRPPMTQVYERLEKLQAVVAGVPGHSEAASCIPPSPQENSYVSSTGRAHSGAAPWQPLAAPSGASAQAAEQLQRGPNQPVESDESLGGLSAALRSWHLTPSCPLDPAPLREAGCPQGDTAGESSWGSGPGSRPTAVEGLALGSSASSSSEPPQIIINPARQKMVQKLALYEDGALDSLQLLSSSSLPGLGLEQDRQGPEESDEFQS

Row | Structure (SMILES) | ROCK inhibition (rho kinase 2 activity) [1] | kinase specificity / kinase interaction spectrum (over 400 kinases) | inhibitory effect for IRAK1 (IRAK1) | inhibitory effect for PIM kinases (PIM kinases) | neurite outgrowth promoting activity [2] | enhancement of LTP (overall conclusion) (hippocampal slices) | effect on LTP (hippocampal slices; 1 μM) | effect on LTP (hippocampal slices; 10 μM) | effect on LTP (hippocampal slices; 100 μM) | synaptic activity upon removal of the substance (hippocampal slices; 100 μM, after wash out) | affinity to ROCK2 (ROCK2) | neurite outgrowth [3] | learning and memory [4]
1 | COc1ccc(S(=O)(=O)N2CCCNCC2)c2ccnc(Cl)c12 [1-(1-chloro-8-methoxy-5 isoquinoline-sulfonyl)homopiperazine] | enhanced ROCK inhibition compared to Fasudil | much more specific ROCK inhibitor than Fasudil; also recorded: very specific ROCK inhibitor | mainly inhibitory effect only for PIM kinases and IRAK1 | mainly inhibitory effect only for PIM kinases and IRAK1 | did not significantly promote neurite outgrowth | significant enhancement of LTP | clearly superior LTP stimulating effect compared to fasudil | LTP induction is unaltered but the maintenance seems to be impaired | LTP induction is blocked completely | clear rebound of synaptic activity |  |  | 
2 | Cc1ccc(S(=O)(=O)N2CCCNCC2)c2ccncc12 [1-(8-methyl-5 isoquinoline-sulfonyl)homopiperazine] | enhanced ROCK inhibition compared to Fasudil | broader kinase interaction spectrum comparable to that of Fasudil |  |  | superior neurite outgrowth promoting activity |  | blocks LTP |  | the ability of LTP induction is re-established |  | much stronger affinity to ROCK2 than Fasudil |  | 
3 | O=S(=O)(c1cccc2cnccc12)N1CCCNCC1 [Fasudil] |  |  |  |  |  |  |  |  |  |  |  | increase neurite outgrowth | can enhance learning and memory
